Converted amounts (≈) assume the structure as drawn.
Key:
[1] = tested on: Mycobacterium tuberculosis; assay: Potentiation of ethionamide induced antibacterial activity against Mycobacterium tuberculosis W4-E1 harboring EthA Gly343Ala mutant expressing GFP incubated for 5 days by fluorescence based analysis; format: functional, organism-based
[2] = tested on: Mycobacterium tuberculosis; assay: Antimycobacterial activity against rifampicin resistant Mycobacterium tuberculosis by broth dilution method; format: functional
[3] = tested on: Mycobacterium tuberculosis; assay: Antimycobacterial activity against isoniazid, rifampicin, amikacin and moxifloxacin resistant Mycobacterium tuberculosis by broth dilution method; format: functional
[4] = tested on: Mycobacterium tuberculosis; assay: Antimycobacterial activity against isoniazid and rifampicin resistant Mycobacterium tuberculosis by broth dilution method; format: functional
[5] = tested on: Mycobacterium tuberculosis; assay: Antimycobacterial activity against extensively drug resistant Mycobacterium tuberculosis H37Rv; format: functional
[6] = tested on: Mycobacterium tuberculosis; assay: Antimycobacterial activity against multidrug resistant Mycobacterium tuberculosis H37Rv; format: functional

With O=C(CCC(F)(F)F)N1CCC(F)(c2cccnc2)CC1 the EC50 [1] was < 1300 nM.

Cc1ccccc1OCc1cn(C[C@@]2(C)Cn3cc([N+](=O)[O-])nc3O2)nn1 gave an MIC [2] of 1 µg/mL (≈ 2.7 µM), an MIC [3] of 1 µg/mL (≈ 2.7 µM) and an MIC [4] of 1 µg/mL (≈ 2.7 µM).

For O=C(CCC(F)(F)F)N1CCC(F)(c2ccnc(C(F)(F)F)c2)CC1, the EC50 [1] was < 1300 nM.

O=C(CCC(F)(F)F)N1CCC2(CC1)CC(F)=NO2 was tested, and the EC50 [1] was < 140 nM.

O=C(CCC(F)(F)F)N1CCC(c2cccc(C(F)(F)F)n2)CC1 was tested, and the EC50 [1] was < 1300 nM.

With O=C(CCC(F)(F)F)N1CCC(c2cncc(C(F)(F)F)n2)CC1 the EC50 [1] was < 1300 nM.

In the case of O=C(CCC(F)(F)F)N1CCC(c2cncc(F)c2)CC1, the EC50 [1] is reported as < 1300 nM.

For C[C@]1(Cn2cc(COc3ccccc3F)nn2)Cn2cc([N+](=O)[O-])nc2O1, the MIC [2] was 1 µg/mL (≈ 2.67 µM), the MIC [3] was 1 µg/mL (≈ 2.67 µM) and the MIC [4] was 0.5 µg/mL (≈ 1.34 µM).

With C[C@]1(Cn2cc(COc3ccc(Br)cc3)nn2)Cn2cc([N+](=O)[O-])nc2O1 the MIC [2] was 0.12 µg/mL (≈ 0.276 µM), the MIC [3] was 0.25 µg/mL (≈ 0.574 µM) and the MIC [4] was 0.12 µg/mL (≈ 0.276 µM).

O=C(CCC(F)(F)F)N1CCC(c2cncc(C(F)(F)F)c2)CC1 was tested, and the EC50 [1] was < 1300 nM.

With O=C(CCC(F)(F)F)N1CCC(F)(c2ccc(F)nc2)CC1 the EC50 [1] was < 1300 nM.

C[C@]1(Cn2cc(COc3cccc(Cl)c3)nn2)Cn2cc([N+](=O)[O-])nc2O1 was tested, and the MIC [2] was 2 µg/mL (≈ 5.12 µM), the MIC [3] was 4 µg/mL (≈ 10.2 µM) and the MIC [4] was 2 µg/mL (≈ 5.12 µM).

In the case of O=C(CCC(F)(F)F)N1CCC(c2ccncc2F)CC1, the EC50 [1] is reported as < 1300 nM.

With O=C(CCC(F)(F)F)N1CCC(c2ccc(F)nc2F)CC1 the EC50 [1] was < 1300 nM.

Compound C[C@]1(Cn2cc(-c3ccc(Oc4ccccc4)cc3)nn2)Cn2cc([N+](=O)[O-])nc2O1 has an MIC [2] of 1 µg/mL (≈ 2.39 µM), an MIC [3] of 1 µg/mL (≈ 2.39 µM) and an MIC [4] of 1 µg/mL (≈ 2.39 µM).

For CC(C)c1ccc(OCc2cn(C[C@@]3(C)Cn4cc([N+](=O)[O-])nc4O3)nn2)cc1, the MIC [2] was 2 µg/mL (≈ 5.02 µM), the MIC [3] was 4 µg/mL (≈ 10 µM) and the MIC [4] was 1 µg/mL (≈ 2.51 µM).

In the case of O=C(CCC(F)(F)F)N1CCC(c2ccc(F)cn2)CC1, the EC50 [1] is reported as < 1300 nM.

For COc1ccc(C2CCN(C(=O)CCC(F)(F)F)CC2)cn1, the EC50 [1] was < 1300 nM.

C[C@]1(Cn2cc(COc3ccc(OC(F)(F)F)cc3)nn2)Cn2cc([N+](=O)[O-])nc2O1 was tested, and the MIC [2] was 2 µg/mL (≈ 4.54 µM), the MIC [3] was 2 µg/mL (≈ 4.54 µM) and the MIC [4] was 2 µg/mL (≈ 4.54 µM).

With C[C@]1(Cn2cc(COc3ccc(C(F)(F)F)cc3)nn2)Cn2cc([N+](=O)[O-])nc2O1 the MIC [2] was 4 µg/mL (≈ 9.43 µM), the MIC [3] was 4 µg/mL (≈ 9.43 µM) and the MIC [4] was 4 µg/mL (≈ 9.43 µM).

For O=C(CCC(F)(F)F)N1CCC(c2cc(C(F)(F)F)ccn2)CC1, the EC50 [1] was < 1300 nM.

In the case of O=C(CCC(F)(F)F)N1CCC(c2ccnc(C(F)(F)F)c2)CC1, the EC50 [1] is reported as < 1300 nM.

For CCCCCc1cn(C[C@@]2(C)Cn3cc([N+](=O)[O-])nc3O2)nn1, the MIC [2] was 8 µg/mL (≈ 25 µM), the MIC [3] was 8 µg/mL (≈ 25 µM) and the MIC [4] was 2 µg/mL (≈ 6.24 µM).

O=C(CCC(F)(F)F)N1CCC(c2cccc(Cl)n2)CC1 was tested, and the EC50 [1] was < 1300 nM.

In the case of O=C(CCC(F)(F)F)N1CC(c2ccc(F)cc2F)C1, the EC50 [1] is reported as < 75 nM.

With CC1=NOC2(CCN(C(=O)CCC(F)(F)F)CC2)C1 the EC50 [1] was < 140 nM.

With O=C(CCC(F)(F)F)N1CCC(c2ccnc(F)c2)CC1 the EC50 [1] was < 1300 nM.

For COc1cccc(C(=O)Nc2nc3cc(C4=NN(C(C)=O)C(c5cccs5)C4)ccc3o2)c1 (centres undefined), the MIC [5] was 12.5 µg/mL (≈ 27.1 µM) and the MIC [6] was 3.12 µg/mL (≈ 6.78 µM).

For O=C(CCC(F)(F)F)N1CC(c2cc(F)c(F)c(F)c2)C1, the EC50 [1] was < 75 nM.

For O=C(CCC(F)(F)F)N1CCC(c2cncc(Cl)n2)CC1, the EC50 [1] was < 1300 nM.

With O=C(CCC(F)(F)F)N1CCC(F)(c2ccccn2)CC1 the EC50 [1] was < 1300 nM.

With Cc1cc(C2CCN(C(=O)CCC(F)(F)F)CC2)ccn1 the EC50 [1] was < 1300 nM.

O=C(CCC(F)(F)F)N1CCC(c2ccc(F)nc2)CC1 was tested, and the EC50 [1] was < 1300 nM.

O=C(CCC(F)(F)F)N1CCC(c2cccc(F)n2)CC1 was tested, and the EC50 [1] was < 1300 nM.

With CC(C)COC1=NOC2(CCN(C(=O)CCC(F)(F)F)CC2)C1 the EC50 [1] was < 140 nM.

In the case of C[C@]1(Cn2cc(COc3ccccn3)nn2)Cn2cc([N+](=O)[O-])nc2O1, the MIC [2] is reported as 0.5 µg/mL (≈ 1.4 µM), the MIC [3] is reported as 0.5 µg/mL (≈ 1.4 µM) and the MIC [4] is reported as 0.25 µg/mL (≈ 0.7 µM).

For N#CC1=NOC2(CCN(C(=O)CCC(F)(F)F)CC2)C1, the EC50 [1] was < 140 nM.

For O=C(CCC(F)(F)F)N1CCC(c2cncc(Cl)c2)CC1, the EC50 [1] was < 1300 nM.
